According to publication PMC6149898, “GPCR Modulation of Thieno[2,3-b]pyridine Anti-Proliferative Agents” (Molecules : A Journal of Synthetic Chemistry and Natural …, 2017):

How the values were obtained:
GRPR = GRPR (Homo sapiens, UniProt P30550); test: gpcrMAX PathHunter beta-arrestin
BR:BT-549 = tested on: BR:BT-549; design: method as in earlier work; conditions: NCI-60 panel; ref [4],[5],[6],[7]; cited from earlier work
CO:HT29 = tested on: CO:HT29; design: method as in earlier work; conditions: NCI-60 panel; ref [4],[5],[6],[7]; cited from earlier work
RXFP3 = RXFP3 (Homo sapiens, UniProt Q9NSD7); test: gpcrMAX PathHunter beta-arrestin
Chain of RXFP3 (Q9NSD7 whole entry): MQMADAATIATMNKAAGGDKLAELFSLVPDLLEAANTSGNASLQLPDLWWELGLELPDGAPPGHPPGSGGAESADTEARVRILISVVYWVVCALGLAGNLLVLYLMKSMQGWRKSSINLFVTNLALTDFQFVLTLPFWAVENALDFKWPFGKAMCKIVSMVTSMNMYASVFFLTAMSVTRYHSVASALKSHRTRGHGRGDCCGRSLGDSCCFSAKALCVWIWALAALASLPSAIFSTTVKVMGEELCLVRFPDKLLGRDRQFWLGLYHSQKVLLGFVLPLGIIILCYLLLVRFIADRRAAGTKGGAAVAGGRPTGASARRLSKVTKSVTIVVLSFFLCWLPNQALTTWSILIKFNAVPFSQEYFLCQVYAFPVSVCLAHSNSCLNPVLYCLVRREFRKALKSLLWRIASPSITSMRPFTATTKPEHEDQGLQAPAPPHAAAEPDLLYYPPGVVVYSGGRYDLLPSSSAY

PROKR2 = PROKR2 (Homo sapiens, UniProt Q8NFJ6); test: gpcrMAX PathHunter beta-arrestin
Chain of PROKR2 (Q8NFJ6 whole entry): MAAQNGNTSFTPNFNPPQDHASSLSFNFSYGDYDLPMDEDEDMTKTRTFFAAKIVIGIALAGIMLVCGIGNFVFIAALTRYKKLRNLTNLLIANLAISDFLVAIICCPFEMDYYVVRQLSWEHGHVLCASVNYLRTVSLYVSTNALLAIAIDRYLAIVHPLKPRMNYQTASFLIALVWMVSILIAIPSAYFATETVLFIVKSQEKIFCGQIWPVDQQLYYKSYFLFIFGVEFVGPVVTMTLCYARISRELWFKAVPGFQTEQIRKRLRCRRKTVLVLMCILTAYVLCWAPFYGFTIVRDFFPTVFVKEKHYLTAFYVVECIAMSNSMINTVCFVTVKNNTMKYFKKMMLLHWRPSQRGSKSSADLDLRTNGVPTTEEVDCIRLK
RE:CAKI-1 = tested on: RE:CAKI-1; design: method as in earlier work; conditions: NCI-60 panel; ref [4],[5],[6],[7]; cited from earlier work
GPR109B = GPR109B (Homo sapiens, UniProt P49019); test: gpcrMAX PathHunter beta-arrestin
MC4R = MC4R (Homo sapiens, UniProt P32245); test: gpcrMAX PathHunter beta-arrestin
Chain of MC4R (P32245 whole entry): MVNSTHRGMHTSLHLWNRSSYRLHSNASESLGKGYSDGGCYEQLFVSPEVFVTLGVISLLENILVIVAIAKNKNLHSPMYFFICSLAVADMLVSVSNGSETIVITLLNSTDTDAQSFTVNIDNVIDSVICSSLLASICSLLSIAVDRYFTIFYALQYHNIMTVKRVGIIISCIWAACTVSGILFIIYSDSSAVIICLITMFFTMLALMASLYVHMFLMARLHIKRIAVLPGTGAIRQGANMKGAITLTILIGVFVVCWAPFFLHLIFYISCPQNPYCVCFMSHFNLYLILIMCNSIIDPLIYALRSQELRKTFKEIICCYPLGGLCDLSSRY
OV:OVCAR-3 = tested on: OV:OVCAR-3; design: method as in earlier work; conditions: NCI-60 panel; ref [4],[5],[6],[7]; cited from earlier work
TRHR = TRHR (Homo sapiens, UniProt P34981); test: gpcrMAX PathHunter beta-arrestin
Chain of TRHR (P34981 whole entry): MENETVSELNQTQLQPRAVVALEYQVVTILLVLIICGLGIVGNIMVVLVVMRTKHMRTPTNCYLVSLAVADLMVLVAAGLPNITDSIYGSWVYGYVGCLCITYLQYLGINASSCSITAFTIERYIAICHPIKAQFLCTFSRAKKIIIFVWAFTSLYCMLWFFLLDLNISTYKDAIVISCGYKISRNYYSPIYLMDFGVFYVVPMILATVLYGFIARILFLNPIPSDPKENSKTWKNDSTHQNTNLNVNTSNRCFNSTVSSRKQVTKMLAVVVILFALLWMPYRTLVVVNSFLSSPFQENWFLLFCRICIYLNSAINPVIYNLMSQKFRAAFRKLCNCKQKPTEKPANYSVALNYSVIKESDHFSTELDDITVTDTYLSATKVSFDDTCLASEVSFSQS

CHRM3 = CHRM3 (Homo sapiens, UniProt P20309); test: gpcrMAX PathHunter beta-arrestin
OV:SK-OV-3 = tested on: OV:SK-OV-3; design: method as in earlier work; conditions: NCI-60 panel; ref [4],[5],[6],[7]; cited from earlier work
EDG5 = EDG5 (Homo sapiens, UniProt O95136); test: gpcrMAX PathHunter beta-arrestin
Chain of EDG5 (O95136 whole entry): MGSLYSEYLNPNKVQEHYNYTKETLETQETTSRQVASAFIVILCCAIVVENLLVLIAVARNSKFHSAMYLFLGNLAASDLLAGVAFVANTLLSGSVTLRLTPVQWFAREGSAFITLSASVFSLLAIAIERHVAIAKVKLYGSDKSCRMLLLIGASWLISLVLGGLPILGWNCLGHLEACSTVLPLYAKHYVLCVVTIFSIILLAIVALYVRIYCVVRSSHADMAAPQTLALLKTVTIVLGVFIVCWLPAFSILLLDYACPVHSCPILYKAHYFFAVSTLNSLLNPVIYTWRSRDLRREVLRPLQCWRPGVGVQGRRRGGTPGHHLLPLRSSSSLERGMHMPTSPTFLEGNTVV

LTB4R = LTB4R (Homo sapiens, UniProt Q15722); test: gpcrMAX PathHunter beta-arrestin
LE:MOLT-4 = tested on: LE:MOLT-4; design: method as in earlier work; conditions: NCI-60 panel; ref [4],[5],[6],[7]; cited from earlier work
CX3CR1 = CX3CR1 (Homo sapiens, UniProt P49238); test: gpcrMAX PathHunter beta-arrestin
RE:ACHN = tested on: RE:ACHN; design: method as in earlier work; conditions: NCI-60 panel; ref [4],[5],[6],[7]; cited from earlier work
CCR8 = CCR8 (Homo sapiens, UniProt P51685); test: gpcrMAX PathHunter beta-arrestin
CXCR3 = CXCR3 (Homo sapiens, UniProt P49682); test: gpcrMAX PathHunter beta-arrestin
ADRA1B = ADRA1B (Homo sapiens, UniProt P35368); test: gpcrMAX PathHunter beta-arrestin
Chain of ADRA1B (P35368 whole entry): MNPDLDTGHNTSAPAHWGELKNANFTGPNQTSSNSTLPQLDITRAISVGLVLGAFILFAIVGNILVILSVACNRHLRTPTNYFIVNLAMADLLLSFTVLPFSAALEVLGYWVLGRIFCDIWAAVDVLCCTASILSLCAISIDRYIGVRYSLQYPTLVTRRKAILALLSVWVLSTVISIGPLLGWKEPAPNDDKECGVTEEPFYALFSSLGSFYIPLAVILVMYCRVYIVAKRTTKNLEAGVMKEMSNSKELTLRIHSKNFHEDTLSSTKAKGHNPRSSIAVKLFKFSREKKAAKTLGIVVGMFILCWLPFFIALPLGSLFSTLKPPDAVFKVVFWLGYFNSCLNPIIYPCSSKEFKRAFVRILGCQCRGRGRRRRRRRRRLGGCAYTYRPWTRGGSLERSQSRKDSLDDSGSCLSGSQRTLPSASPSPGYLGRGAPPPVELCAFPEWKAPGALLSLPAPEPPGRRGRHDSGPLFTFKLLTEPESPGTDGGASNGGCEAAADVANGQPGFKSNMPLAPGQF

CCR4 = CCR4 (Homo sapiens, UniProt P51679); test: gpcrMAX PathHunter beta-arrestin
LC:HOP-62 = tested on: LC:HOP-62; design: method as in earlier work; conditions: NCI-60 panel; ref [4],[5],[6],[7]; cited from earlier work
EDNRA = EDNRA (Homo sapiens, UniProt P25101); test: gpcrMAX PathHunter beta-arrestin
MC3R = MC3R (Homo sapiens, UniProt P41968); test: gpcrMAX PathHunter beta-arrestin
Chain of MC3R (P41968 whole entry): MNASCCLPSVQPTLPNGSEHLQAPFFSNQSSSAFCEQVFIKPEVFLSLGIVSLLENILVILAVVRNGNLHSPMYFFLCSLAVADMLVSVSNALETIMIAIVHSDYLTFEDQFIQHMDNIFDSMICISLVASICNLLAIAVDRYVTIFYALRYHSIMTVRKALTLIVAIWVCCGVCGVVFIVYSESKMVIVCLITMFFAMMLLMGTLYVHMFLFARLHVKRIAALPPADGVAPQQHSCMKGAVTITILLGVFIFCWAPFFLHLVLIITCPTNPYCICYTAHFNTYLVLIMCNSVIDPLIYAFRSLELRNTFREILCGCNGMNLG

OPRD1 = OPRD1 (Homo sapiens, UniProt P41143); test: gpcrMAX PathHunter beta-arrestin
RE:UO-31 = tested on: RE:UO-31; design: method as in earlier work; conditions: NCI-60 panel; ref [4],[5],[6],[7]; cited from earlier work
ADCYAP1R1 = ADCYAP1R1 (Homo sapiens, UniProt P41586); test: gpcrMAX PathHunter beta-arrestin
CCR7 = CCR7 (Homo sapiens, UniProt P32248); test: gpcrMAX PathHunter beta-arrestin
EDG3 = EDG3 (Homo sapiens, UniProt Q99500); test: gpcrMAX PathHunter beta-arrestin
CXCR5 = CXCR5 (Homo sapiens, UniProt P32302); test: gpcrMAX PathHunter beta-arrestin
ME:SK-MEL-28 = tested on: ME:SK-MEL-28; design: method as in earlier work; conditions: NCI-60 panel; ref [4],[5],[6],[7]; cited from earlier work
AVPR1A = AVPR1A (Homo sapiens, UniProt P37288); test: gpcrMAX PathHunter beta-arrestin
P2RY11 = P2RY11 (Homo sapiens, UniProt Q96G91); test: gpcrMAX PathHunter beta-arrestin
Chain of P2RY11 (Q96G91 whole entry, one chain of several): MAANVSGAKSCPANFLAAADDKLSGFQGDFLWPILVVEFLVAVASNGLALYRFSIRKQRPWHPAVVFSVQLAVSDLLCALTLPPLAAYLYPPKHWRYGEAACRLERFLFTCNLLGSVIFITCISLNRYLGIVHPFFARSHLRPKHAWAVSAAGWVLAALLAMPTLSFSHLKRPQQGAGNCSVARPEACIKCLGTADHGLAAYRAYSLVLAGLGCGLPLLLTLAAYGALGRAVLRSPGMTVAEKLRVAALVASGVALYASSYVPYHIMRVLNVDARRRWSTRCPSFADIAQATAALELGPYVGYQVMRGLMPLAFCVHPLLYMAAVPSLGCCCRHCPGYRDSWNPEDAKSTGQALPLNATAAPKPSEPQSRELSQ

NMBR = NMBR (Homo sapiens, UniProt P28336); test: gpcrMAX PathHunter beta-arrestin
RE:SN12C = tested on: RE:SN12C; design: method as in earlier work; conditions: NCI-60 panel; ref [4],[5],[6],[7]; cited from earlier work
LE:K-562 = tested on: LE:K-562; design: method as in earlier work; conditions: NCI-60 panel; ref [4],[5],[6],[7]; cited from earlier work
MCHR2 = MCHR2 (Homo sapiens, UniProt Q969V1); test: gpcrMAX PathHunter beta-arrestin
Chain of MCHR2 (Q969V1 whole entry): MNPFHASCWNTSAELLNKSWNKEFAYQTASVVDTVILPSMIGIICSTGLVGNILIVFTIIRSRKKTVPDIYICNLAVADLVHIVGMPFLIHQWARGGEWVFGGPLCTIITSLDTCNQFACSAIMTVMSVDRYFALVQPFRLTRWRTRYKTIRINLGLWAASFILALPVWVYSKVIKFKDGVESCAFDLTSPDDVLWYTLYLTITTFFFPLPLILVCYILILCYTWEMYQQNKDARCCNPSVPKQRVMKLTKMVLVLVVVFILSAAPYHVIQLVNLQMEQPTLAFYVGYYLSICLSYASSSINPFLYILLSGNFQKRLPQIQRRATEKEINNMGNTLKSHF

ADRB1 = ADRB1 (Homo sapiens, UniProt P08588); test: gpcrMAX PathHunter beta-arrestin
Chain of ADRB1 (P08588 whole entry): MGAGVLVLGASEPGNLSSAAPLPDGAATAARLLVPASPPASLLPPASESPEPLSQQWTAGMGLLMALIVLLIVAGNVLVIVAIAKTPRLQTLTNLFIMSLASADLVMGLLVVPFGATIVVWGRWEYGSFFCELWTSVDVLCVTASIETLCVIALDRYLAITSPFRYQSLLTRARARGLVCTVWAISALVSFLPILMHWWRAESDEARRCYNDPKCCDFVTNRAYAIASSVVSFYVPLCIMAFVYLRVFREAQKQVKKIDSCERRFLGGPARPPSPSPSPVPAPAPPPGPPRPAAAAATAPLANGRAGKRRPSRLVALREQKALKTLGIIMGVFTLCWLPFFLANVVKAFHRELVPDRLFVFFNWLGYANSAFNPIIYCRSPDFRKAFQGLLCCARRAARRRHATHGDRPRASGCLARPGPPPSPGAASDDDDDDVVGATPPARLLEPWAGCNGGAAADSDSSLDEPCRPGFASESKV

MLNR = MLNR (Homo sapiens, UniProt O43193); test: gpcrMAX PathHunter beta-arrestin
CCR5 = CCR5 (Homo sapiens, UniProt P51681); test: gpcrMAX PathHunter beta-arrestin
CHRM5 = CHRM5 (Homo sapiens, UniProt P08912); test: gpcrMAX PathHunter beta-arrestin
Chain of CHRM5 (P08912 whole entry): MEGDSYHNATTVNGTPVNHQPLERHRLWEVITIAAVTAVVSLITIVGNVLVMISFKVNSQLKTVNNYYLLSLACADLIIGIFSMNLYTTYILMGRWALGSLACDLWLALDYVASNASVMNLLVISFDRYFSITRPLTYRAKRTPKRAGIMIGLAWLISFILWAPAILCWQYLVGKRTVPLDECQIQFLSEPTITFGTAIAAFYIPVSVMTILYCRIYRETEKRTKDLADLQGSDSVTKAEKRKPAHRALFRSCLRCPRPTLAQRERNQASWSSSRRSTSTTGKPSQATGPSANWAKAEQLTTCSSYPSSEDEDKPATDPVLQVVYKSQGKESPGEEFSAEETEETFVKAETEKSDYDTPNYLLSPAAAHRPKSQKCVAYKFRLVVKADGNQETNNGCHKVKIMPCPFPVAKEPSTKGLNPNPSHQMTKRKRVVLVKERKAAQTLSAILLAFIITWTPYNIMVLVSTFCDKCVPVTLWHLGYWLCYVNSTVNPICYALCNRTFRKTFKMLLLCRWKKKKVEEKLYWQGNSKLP

Chain of GRPR (P30550 whole entry): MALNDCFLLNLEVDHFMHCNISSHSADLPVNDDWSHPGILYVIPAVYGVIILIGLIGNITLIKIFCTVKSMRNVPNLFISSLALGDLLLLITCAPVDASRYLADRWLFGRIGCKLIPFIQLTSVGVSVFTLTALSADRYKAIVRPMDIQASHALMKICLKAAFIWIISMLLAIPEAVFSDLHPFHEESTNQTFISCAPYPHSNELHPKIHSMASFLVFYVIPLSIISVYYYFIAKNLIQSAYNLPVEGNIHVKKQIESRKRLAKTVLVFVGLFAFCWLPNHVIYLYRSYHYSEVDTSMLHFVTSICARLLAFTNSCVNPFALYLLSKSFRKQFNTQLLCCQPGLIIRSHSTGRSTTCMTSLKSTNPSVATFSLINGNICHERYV

Cc1c(Cl)cccc1NC(=O)c1sc2nc3c(cc2c1N)C(=O)CCC3 [Compound 1]
inhibition at 10 µM (GRPR): 11% | GI50 (BR:BT-549): 321 nM | GI50 (CO:HT29): 49 nM | inhibition at 10 µM (RXFP3): -27% | inhibition at 10 µM (PROKR2): -3% | GI50 (RE:CAKI-1): 46.1 nM | inhibition at 10 µM (GPR109B): 7% | inhibition at 10 µM (MC4R): -42% | GI50 (OV:OVCAR-3): 48.9 nM | inhibition at 10 µM (TRHR): 13% | inhibition at 10 µM (CHRM3): 14% | GI50 (OV:SK-OV-3): 60.6 nM | inhibition at 10 µM (EDG5): -1% | inhibition at 10 µM (LTB4R): 4% | GI50 (LE:MOLT-4): 476 nM | inhibition at 10 µM (CX3CR1): 11% | GI50 (RE:ACHN): 83.7 nM | inhibition at 10 µM (CCR8): -7% | inhibition at 10 µM (CXCR3): -19% | inhibition at 10 µM (ADRA1B): 11% | inhibition at 10 µM (CCR4): 26% | GI50 (LC:HOP-62): 110 nM | inhibition at 10 µM (EDNRA): -18% | inhibition at 10 µM (MC3R): 2% | inhibition at 10 µM (OPRD1): -26% | GI50 (RE:UO-31): 73.1 nM | inhibition at 10 µM (ADCYAP1R1): 23% | inhibition at 10 µM (CCR7): 34% | inhibition at 10 µM (EDG3): -2% | inhibition at 10 µM (CXCR5): 0% | GI50 (ME:SK-MEL-28): 224 nM | inhibition at 10 µM (AVPR1A): -12% | inhibition at 10 µM (P2RY11): -6% | inhibition at 10 µM (NMBR): 28% | GI50 (RE:SN12C): 142 nM | GI50 (LE:K-562): 37.5 nM | inhibition at 10 µM (MCHR2): -7% | inhibition at 10 µM (ADRB1): -27% | inhibition at 10 µM (MLNR): -18% | inhibition at 10 µM (CCR5): 11% | inhibition at 10 µM (CHRM5): 8%
